Assays:
Format in all cases: binding
[1] = target: T1, PKM2 (pyruvate kinase M2) (Homo sapiens, UniProt P14618); test: surface plasmon resonance, CM5 chip, steady-state […]
T1 construct: gene PKM; recombinant, pET28a, E. coli BL21, Ni-NTA purified; full length implied

HMGB1 B box = target: T2, HMGB1 B box (Homo sapiens, UniProt P09429); test: UV-visible absorption; competition with Cel-P labelling; settings: 100 μmol/L Cel; covalent
T2 construct: B box domain (contains Cys106)
T2 sequence (P09429 95-163 limits assumed): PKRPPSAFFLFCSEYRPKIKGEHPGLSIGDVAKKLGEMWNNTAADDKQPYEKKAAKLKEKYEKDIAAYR

[2] = target: T3, HMGB1 (high mobility group box 1) (Homo sapiens, UniProt P09429); test: surface plasmon resonance, CM5 chip, steady-state […]
T3 construct: recombinant full length, pET-24d, E. coli BL21, Ni-NTA purified; a recombinant human HMGB1 was also bought from Abcam
T3 sequence (P09429 1-215): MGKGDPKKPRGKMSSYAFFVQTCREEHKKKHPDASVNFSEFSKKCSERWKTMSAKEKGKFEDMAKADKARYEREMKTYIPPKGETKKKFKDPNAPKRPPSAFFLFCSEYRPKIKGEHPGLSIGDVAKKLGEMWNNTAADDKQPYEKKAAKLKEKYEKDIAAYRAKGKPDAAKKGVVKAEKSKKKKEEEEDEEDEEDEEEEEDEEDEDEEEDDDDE

[3] = target: T4, LDHA (lactate dehydrogenase A) (Homo sapiens, UniProt P00338); test: as above
T4 construct: recombinant human LDHA obtained from Abcam

[4] = target: T1, PKM2 (pyruvate kinase M2); test: probe labelling, click chemistry, in-gel fluorescence; settings: room temperature; PBS; covalent
[5] = target: T3, HMGB1 (high mobility group box 1); test: as above; settings: room temperature; PBS; covalent

T1 sequence (P14618 2-531): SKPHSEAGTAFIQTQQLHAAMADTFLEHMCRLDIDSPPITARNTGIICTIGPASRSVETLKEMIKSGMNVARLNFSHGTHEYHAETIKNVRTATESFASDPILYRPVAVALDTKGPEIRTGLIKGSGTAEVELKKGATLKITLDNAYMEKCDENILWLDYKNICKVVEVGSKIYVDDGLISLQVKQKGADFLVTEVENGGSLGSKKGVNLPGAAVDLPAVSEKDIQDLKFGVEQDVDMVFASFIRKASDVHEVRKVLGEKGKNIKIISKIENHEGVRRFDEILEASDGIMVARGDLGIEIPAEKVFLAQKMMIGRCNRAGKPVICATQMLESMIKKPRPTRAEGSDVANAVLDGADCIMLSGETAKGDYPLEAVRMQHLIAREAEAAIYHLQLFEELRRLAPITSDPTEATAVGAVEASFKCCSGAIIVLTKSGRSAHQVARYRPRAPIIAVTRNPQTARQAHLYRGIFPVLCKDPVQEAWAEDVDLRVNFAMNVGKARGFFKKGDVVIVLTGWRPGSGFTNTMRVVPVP

Row | Structure (SMILES) | Kd [1] [µM] | UV-visible absorption; competition with Cel-P labelling (HMGB1 B box) | Kd [2] [µM] | Kd [3] [µM] | probe labelling, click chemistry, in-gel fluorescence [4] | probe labelling, click chemistry, in-gel fluorescence [5]
1 | CC1=C(O)C(=O)C=C2C1=CC=C1[C@@]2(C)CC[C@@]2(C)[C@@H]3C[C@](C)(C(=O)O)CC[C@]3(C)CC[C@]12C [Cel, Celastrol] | 635 | UV–visible absorption by Cel decreased upon mixing with the B box domain | 4.44 | 562 |  | 
2 | C#CCNC(=O)[C@]1(C)CC[C@]2(C)CC[C@]3(C)C4=CC=C5C(=CC(=O)C(O)=C5C)[C@]4(C)CC[C@@]3(C)[C@@H]2C1 [Cel-P, celastrol-probe] |  |  |  |  | These proteins were labeled with Cel-P in a dose-dependent manner | Cel-P labeled recombinant human HMGB1 (Fig. 6c)
